We go through two compounds from patent publication US20110206779A1, “GASTRIC ULCER THERAPEUTIC AGENT” (priority 2010, published 2011).

Series [1] in a line: Measurement of adsorption amount of naphthol yellow S. Conditions: 1.0 g powder in 500 mL NYS aqueous solution 100 ppm, 30° C., 1 hour. The class given is physicochemical. On the procedure: [Measurement of Adsorption Amount of Naphthol Yellow S]
1.0 g of a powder sample was added to 500 mL of an aqueous solution of naphthol yellow S (NYS) (concentration 100 ppm). The mixture was stirred at 30° C. for 1 hour and then filtered to obtain a filtrate. The concentration of NYS in the filtrate was measured with a spectrophotometer and the adsorption amount of the sample was obtained.

A short description of series [2]: Antacid power, measured according to the pharmacopoeia of Japan. The series is classed as physicochemical.
The subject of series [3] is water immersion restraint stress ulcer. Briefly: Influence on rat water immersion restraint stress ulcer. The series is classed as in vivo, Wister rats. Particulars: oral, 30 minutes before stress, 7 hours stress; for Length of gastric mucosa impairment: control 14.7 mm. The source says: [Influence on Rat Water Immersion Restraint Stress Ulcer]
The powders obtained in Examples 1, 2 and 3, a mixed powder containing the powder obtained in Example 2 and basic zinc carbonate (Zn=58%), the powders obtained in Comparative Examples 1 and 2, lansoprazole as a proton pump inhibitor and sucralfate, which is most highly evaluated as a gastric mucosa protective agent, were used as test specimens. These test specimens were examined for effect on water immersion restraint stress ulcer, which is an acute ulcer model.
Eight Wister rats as a group were preliminarily reared for a few days. The rats were fasted for 24 hours. Then, the rats were placed in a stress cage according to the method of Takagi et al. (Jap, J, Pharacol, 18:9, 1968). The rats were immersed up to xiphoid process parts in a water tank having a temperature of 23° C. and the rats were subjected to stress for 7 hours. Then, their stomachs were taken out under ether anesthesia. About 12 mL of 2% formalin physiological saline solution was injected into each stomach, to fix the stomach. Then, each stomach was cut out along a curvatura ventriculi major side. The length (mm) of mucosa ulcer at a glandular stomach portion was measured.
As to oral administration of the test specimens, 5 mL/kg (rat weight) of a liquid containing a test specimen was administered 30 minutes before the load of the stress. In Control, the same amount of water was administered.

With `Cc1c(OCC(F)(F)F)ccnc1C[S+]([O-])c1nc2ccccc2[nH]1` (centres unmarked) [Lansoprazole, lansoprazole], the NYS adsorption amount in series [1] turned out to be 0 mg/g. In series [2], this compound came in with an Antacid power of 0 mL/g. Also, in series [3] (dosage 40 mg/kg), the Inhibition rate stood at 78% and the “Length of gastric mucosa impairment” value is reported as 3.2 mm.

Turning to sucralfate, in series [1], the NYS adsorption amount came to 0.60 mg/g. Moreover, the Antacid power in series [2] was 168 mL/g. In series [3] (dosage 500 mg/kg), the Inhibition rate was determined as 71% and the “Length of gastric mucosa impairment” value is 4.3 mm.
